This note sets out measurements from patent publication US7462605B2, “Phosphoramidate compounds and methods of use” (Celmed Oncology (USA), Inc., priority 2002, dated 2008).

Entries after “also recorded” stand apart in the source; their conditions may differ. Where two headings read alike, the source gives them in different places.

In one assay the target is T1, TS in intact RKO cells (Homo sapiens, UniProt P04818).
T1 construct: endogenous in cells; host or cells: RKO cells
Kind of assay: TS activity in intact cells by tritium release. As to conditions: release of [^3H]2O from 5-[^3H]deoxyuridine. Type of assay: cell-based. The procedure: TS activity was measured in intact RKO cells by release of [^3H]2O from 5-[^3H]deoxyuridine as described in Materials and Methods. NB1011 was washed out of cells by replacing with fresh media, incubating for 60 minutes at 37 ° C., then repeating this procedure. Control and untreated cells were subjected to the same washing procedure.
TS Activity Assay by Tritium Release from dUMP-^3H. Cells were plated in 24 well plates to a density of 30,000 cells/plate and incubated for 16 hours to allow adhesion to the plastic surface of the plate.
Immediately prior to the thymidylate synthase assay, the media was replaced with RPMI+10% dialyzed fetal calf serum. 0.5 μCi of 5-[^3H]deoxyuridine was added to each well, and plates were incubated for 60 minutes at 37° C. without additional CO2. [^3H] release was measured by adsorbing 5-[^3H]deoxyuridine to activated charcoal (10% in 1×PBS) for 5 minutes at room temperature. After centrifugation for 5 minutes at 13,000 RPM, the amount of [^3H] in the supernatant was determined by liquid scintillation counting.
The results described above indicate that BVdUMP, generated intracellularly from NB1011, is unlikely to inactivate TS during its transformation to product(s). […] In these experiments exogenous 5-(3H) deoxyuridine is added to cell culture medium and the release of tritiated water is monitored (Carreras, C. W. and Santi, D. V. (1995) and Roberts (1966)). […]

Assay [1] deals with DET551 (Skin) normal cells. Kind of assay: alamarBlue growth inhibition, DET551. Type of assay: cell-based, human. As to conditions: 120 hours. The procedure:
(§1) Growth Inhibition Studies. Cells growing exponentially were transferred to 384-well flat bottom tissue culture plates. All cell types were plated at a density of 500 cells per well in 25 μL of complete medium (RPMI 1640+10% fetal bovine serum+antibiotics/antimycotics). After 24 hours (day 0), 25 μL of complete medium containing the experimental compounds over the dose range of 10^ñ3 to 10^ñ10 M were added in triplicate. […] 5 μL of the redox indicator, alamarBlue, was added to each well (10% v/v). After 4 hours incubation at 37° C., fluorescence was monitored at 535 nm excitation and 595 nm emission.
(§2) Concentration vs. relative fluorescence units (RFU) were plotted, and sigmoid curves were fit using the Hill equation.

Another assay deals with NHLF (Lung) normal cells. Kind of assay: alamarBlue growth inhibition, NHLF. In kind it is cell-based, human. To be noted: 120 hours. The method, then: as §1, §2
A general note: The colour change of resazurin is a common sign of viable cells or microbes.

In assay [2] the test system is NPRSC (Prostate) normal cells. Kind of assay: alamarBlue growth inhibition, NPRSC. Type of assay: cell-based, human. As to conditions: 120 hours. The method, then:
as §1, §2

Assay [3] concerns NHEPF (Liver) normal cells. Kind of assay: alamarBlue growth inhibition, NHEPF. To be noted: 120 hours. In kind it is cell-based, human. The method, then: as §1, §2
Assay [4] concerns H630R10 5FU-resistant colon tumor cells. The experiment in a line: alamarBlue growth inhibition, H630R10. Type of assay: cell-based, human. The method, then: as §1, §2
For assay [5], the system named is SW620 (Colon) tumor cells. The experiment in a line: alamarBlue growth inhibition, SW620. Type of assay: cell-based, human. To be noted: 120 hours. The procedure: as §1, §2
Assay [6] has as its system NCI H520 (Lung) tumor cells. The experiment in a line: alamarBlue growth inhibition, NCI H520. Type of assay: cell-based, human. As to conditions: 120 hours. The procedure: as §1, §2
The test system of the next assay is SKLU1 (Lung) tumor cells. Kind of assay: alamarBlue growth inhibition, SKLU1. In kind it is cell-based, human. To be noted: 120 hours. The procedure:
as §1, §2

A further assay deals with SOAS2 (Bone) tumor cells. Kind of assay: alamarBlue growth inhibition, SOAS2. Type of assay: cell-based, human. As to conditions: 120 hours. The procedure: as §1, §2
In assay [7] the test system is PANC1 (Pancreas) tumor cells. The experiment in a line: alamarBlue growth inhibition, PANC1. In kind it is cell-based, human. To be noted: 120 hours. The method, then: as §1, §2
The test system of assay [8] is PC3 (Prostate) tumor cells. The experiment in a line: alamarBlue growth inhibition, PC3. Type of assay: cell-based, human. To be noted: 120 hours. The method, then:
as §1, §2

Assay [9] has as its system HEPG2 (Liver) tumor cells. The experiment in a line: alamarBlue growth inhibition, HEPG2. As to conditions: 120 hours. Type of assay: cell-based, human. The method, then:
as §1, §2

Assay [10] has as its system MCIxc (Brain) tumor cells. The experiment in a line: alamarBlue growth inhibition, MCIxc. Type of assay: cell-based, human. As to conditions: 120 hours. The method, then: as §1, §2
The next assay concerns TSL/HT1080 cells. Kind of assay: alamarBlue cytotoxicity, HT1080 expressing low GFP-TS. In kind it is cell-based, human. As to conditions: TSL/HT1080, TS Level 409%. The method, then: Cell lines and transfection. HT1080 cells were grown in PRM11640 medium supplemented with 10% fetal calf serum, and transfected with GFP-TS expression vector. 48 hours after, transfection cells were tripsinized and replated in culture medium containing 750 μg/ml G418. After selection with G418 for two weeks, surviving cells were sorted based upon fluorescence expression. One clone with higher fluorescence expression (named as TSH/HT1080) and one clone with lower fluorescence expression (named as TSL/HT1080) were selected and expanded into cells lines. The stable HT1080 cells transfected with pEGFP-C3 were used as control.
Construction of GFP-TS expression vector. […] The cDNA was cloned into HindIII and KpnI sites of mammalian expression vector pEGFP-C3 (Clontech Laboratories. Inc., Palo Alto, Calif.), in-frame with GFP sequence. The cDNA insert was confirmed by DNA sequencing.
Growth Inhibition Studies. Cells growing exponentially were transferred to 384-well flat bottom tissue culture plates. All cell types were plated at a density of 500 cells per well in 25 μL of complete medium (RPMI 1640+10% fetal bovine serum+antibiotics/antimycotics). […] After 4 hours incubation at 37° C., fluorescence was monitored at 535 nm excitation and 595 nm emission.
as §2

The subject of a further assay is RKO colon cancer cells. The experiment in a line: alamarBlue cytotoxicity, RKO parental. In kind it is cell-based, human. As to conditions: Drug Selection None, read-out: NB1011-IC50. The procedure: as §1, §2
Cells were grown and characterized as described above. TS expression level is relative to CCD18co, a normal colon epithelial cell line. Tritium release is background substracted as described in Methods. ND=Not detectable above background.

The subject of assay [11] is CCD18co normal colon epithelial cells. The experiment in a line: Thymidine rescue, alamarBlue cytotoxicity. Type of assay: cell-based, human. To be noted: in the presence of 10 μM thymidine. The source says:
An additional approach was taken to understanding whether NB1011 might interfere with cell growth primarily by inactivating TS. This approach is based upon thymidine rescue of TS-blocked cells. […] For this reason, they survive only by scavenger mechanisms. One of the important scavenger mechanisms is utilization of extracellular thymidine. Thymidine incorporated by target cells can be converted to dTMP, usually by thymidine kinase, and thus continue DNA synthesis. Other pathways for use of exogenous thymidine have also been described If an important mechanism for NB1011 activity is via inhibition of endogenous TS, then the cytotoxicity should be relieved when thymidine is added to the cell culture media. For this experiment, a number of tumor cell lines were screened for their sensitivity to Tomudex and 5FdUrd, and ability to be rescued from these agents via thymidine supplementation. […] Experiments were carried out as described by (Patterson, et al. (1998)) with or without 10 μM thymidine, except that the alamarBlue assay was employed to determine cytotoxicity.

T1 sequence (P04818 2-313 limits assumed): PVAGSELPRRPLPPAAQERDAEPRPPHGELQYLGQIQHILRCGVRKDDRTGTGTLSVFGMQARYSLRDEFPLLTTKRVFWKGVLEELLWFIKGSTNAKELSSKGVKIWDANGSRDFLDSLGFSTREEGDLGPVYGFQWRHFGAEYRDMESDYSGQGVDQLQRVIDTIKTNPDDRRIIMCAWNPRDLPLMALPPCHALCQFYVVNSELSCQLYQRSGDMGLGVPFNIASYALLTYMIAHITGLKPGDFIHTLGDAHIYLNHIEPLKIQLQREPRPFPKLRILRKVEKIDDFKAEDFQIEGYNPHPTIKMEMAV

For orientation: IC50 means the concentration at which inhibition is half-maximal. In the case of “5-(2-Bromovinyl)-2′-deoxyuridine phenyl N-methoxy-L-alaninyl phosphoramidate [NB1011]”, on TS in intact RKO cells, the “effect on TS activity in intact cells after wash-out” value was “completely reversible; also recorded: does not irreversibly inactivate the TS enzyme”. The 50% inhibitory concentration (IC50) in [1] was 262 µM; with NHLF (Lung) normal cells it was 139 µM; in assay [2] it was 369 µM; in [3], 2080 µM; in assay [4] (H630 Colon cancer, Drug Selection 5FU, read-out: NB1011-IC50), 65 µM; in assay [4] (H630R10, comparison with 5FUdR, read-out: IC50), 217 µM. The IC50 in [4] (Tumor Cells: H630R10 (Colon), alamarBlue, 120 hours, read-out: IC50) turned out to be 65 µM; in [5], 374 µM; in assay [6], 135 µM; in the assay with SKLU1 (Lung) tumor cells, 270 µM; in the assay with SOAS2 (Bone) tumor cells, 232 µM; in assay [7], 492 µM. In addition, the IC50 in [8] is 184 µM; in [9], 704 µM; in [10], 61 µM; with TSL/HT1080 cells, 196 µM; in the assay on RKO colon cancer cells, 136 µM; in [11], 223 µM. The “NB1011 activity diminished, compared to NB1011 alone” value in [4] (H630R10, in the presence of 3 μM LV, alamarBlue) is recorded as “more than 90%”.
